# Data: ChEMBL document CHEMBL2074555 (Biochem Pharmacol, 1992)
# Target: ATP-dependent translocase ABCB1 (Mus musculus, UniProt P21447)
# Experiment: TP_TRANSPORTER: increase in Vinblastine intracellular accumulation in F4-6RADR cells
# Type: functional, cell-based
# ATP-dependent translocase ABCB1, sequence (P21447 whole entry): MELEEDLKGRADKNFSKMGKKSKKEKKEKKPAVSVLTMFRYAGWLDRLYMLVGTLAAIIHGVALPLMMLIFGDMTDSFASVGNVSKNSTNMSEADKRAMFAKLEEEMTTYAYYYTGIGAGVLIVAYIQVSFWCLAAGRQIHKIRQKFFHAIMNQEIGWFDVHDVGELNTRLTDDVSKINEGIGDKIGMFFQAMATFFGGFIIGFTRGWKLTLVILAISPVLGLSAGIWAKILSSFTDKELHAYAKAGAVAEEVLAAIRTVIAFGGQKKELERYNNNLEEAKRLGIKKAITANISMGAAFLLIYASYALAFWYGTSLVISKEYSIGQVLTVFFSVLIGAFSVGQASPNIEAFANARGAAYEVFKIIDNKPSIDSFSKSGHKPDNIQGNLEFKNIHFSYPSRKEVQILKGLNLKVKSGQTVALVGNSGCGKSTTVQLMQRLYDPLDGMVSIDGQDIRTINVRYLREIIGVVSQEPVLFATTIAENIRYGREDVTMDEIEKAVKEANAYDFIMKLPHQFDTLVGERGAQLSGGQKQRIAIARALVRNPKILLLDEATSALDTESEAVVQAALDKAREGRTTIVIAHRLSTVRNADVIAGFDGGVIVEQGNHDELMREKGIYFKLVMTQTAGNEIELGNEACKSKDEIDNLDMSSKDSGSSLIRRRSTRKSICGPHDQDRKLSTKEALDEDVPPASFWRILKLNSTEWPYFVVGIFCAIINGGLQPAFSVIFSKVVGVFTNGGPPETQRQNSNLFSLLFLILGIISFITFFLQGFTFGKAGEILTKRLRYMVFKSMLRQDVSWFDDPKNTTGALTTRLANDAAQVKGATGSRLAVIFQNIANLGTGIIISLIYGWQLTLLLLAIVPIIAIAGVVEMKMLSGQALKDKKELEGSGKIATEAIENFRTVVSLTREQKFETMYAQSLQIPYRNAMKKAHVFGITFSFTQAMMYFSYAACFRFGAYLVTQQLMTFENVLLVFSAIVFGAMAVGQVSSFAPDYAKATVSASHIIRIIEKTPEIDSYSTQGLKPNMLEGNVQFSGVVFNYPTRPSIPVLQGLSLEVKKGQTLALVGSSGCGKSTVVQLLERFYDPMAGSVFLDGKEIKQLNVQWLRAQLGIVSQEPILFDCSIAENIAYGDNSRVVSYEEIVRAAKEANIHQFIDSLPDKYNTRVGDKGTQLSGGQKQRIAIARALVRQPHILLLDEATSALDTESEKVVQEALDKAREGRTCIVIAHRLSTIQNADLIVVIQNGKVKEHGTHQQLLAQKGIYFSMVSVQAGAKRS
row,Activity,SMILES
1,inhibitor [+],COCCOC(=O)C1=C(C)NC(C)=C(C(=O)OC(C)C)C1c1cccc([N+](=O)[O-])c1 (stereo not drawn) [NIMODIPINE]
2,inhibitor [+],COC(=O)C1=C(C)NC(C)=C(C(=O)OC(C)C)C1c1cccc2nonc12 (stereo not drawn) [ISRADIPINE]
3,inhibitor [+],COC(=O)C1=C(C)NC(C)=C(C(=O)OCCCN2CCC(c3ccccc3)(c3ccccc3)CC2)[C@H]1c1cccc([N+](=O)[O-])c1 [NIGULDIPINE]
4,inhibitor [+],CCOC(=O)C1=C(C)NC(C)=C(C(=O)OC)C1c1cccc([N+](=O)[O-])c1 (stereo not drawn) [NITRENDIPINE]
5,inhibitor [+],CC(C)C(C#N)(CCCN(C)CCc1ccccc1)c1ccccc1 (stereo not drawn) [EMOPAMIL]
6,inhibitor [+],CCOC(=O)C1=C(C)NC(C)=C(C(=O)OC)C1c1cccc(Cl)c1Cl (stereo not drawn) [FELODIPINE]
7,inhibitor [+],COc1cccc(CCN(C)CCCC(C#N)(c2ccc(OC)c(OC)c2)C(C)C)c1 (stereo not drawn)
8,inhibitor [+],COc1ccc(CCN(C)CCCC(C#N)(c2cc(OC)c(OC)c(OC)c2)C(C)C)cc1OC (stereo not drawn) [GALLOPAMIL]
